Experimental data published in patent US10301302B2, “Crystalline forms of N-(2-chloro-6-methy]phenvn-2-[F6-[4-(2-hvdroxvethvl)-L-piperazin-vil-2-methvil-4-pvrimidinvllaminol-5-thiazolecarboxamide and their process thereof” (MSN LABORATORIES PRIVATE LIMITED, priority 2015, dated 2019).

Assays:
[1] = Solubility of the 1,2-propanediol solvate (stated advantage, no method given); type: physicochemical; details: advantageous property found by the inventors; no solvent or value given
[2] = cited from earlier work

| Structure (SMILES) | solubility [1] | solubility in alcoholic solvents ([2]; alcoholic solvents like ethanol and methanol) | solubility in water ([2]; water) |
| --- | --- | --- | --- |
| Cc1nc(Nc2ncc(C(=O)Nc3c(C)cccc3Cl)s2)cc(N2CCN(CCO)CC2)n1 [1,2-propanediol solvate, 1,2-Propanediol solvate of N-(2-chloro-6-methylphenyl)-2-[[6-[4-(2-hydroxyethyl)-1-piperazinyl]-2-methyl-4-pyrimidinyl]amino]-5-thiazolecarboxamide] | good solubility | – | – |
| Cc1nc(Nc2ncc(C(=O)Nc3c(C)cccc3Cl)s2)cc(N2CCN(CCO)CC2)n1 [Dasatinib, N-(2-chloro-6-methylphenyl)-2-[[6-[4-(2-hydroxyethyl)-1-piperazinyl]-2-methyl-4-pyrimidinyl]amino]-5-thiazole carboxamide] | – | slightly soluble | insoluble |
